Where “and” joins values, the source holds several entries; their conditions need not be identical. Identical values can stand only once. Like-named read-outs stand apart in the source and are kept apart here.
Key:
[1] = test system: LPS-stimulated NO production in RAW 264.7 cells; assay: Inhibition of LPS-induced NO production (nitrite accumulation, Griess reaction) in RAW 264.7 cells; type: cell-based; details: for inhibition at 10 µM: compound 10 μM, read-out: Percent Inhibition of NO Production at 10 μM
Experimental: Treatment of Raw 264.7 cells with LPS (0.1 μg/mL) for 24 h induced NO production which were assessed by measuring the accumulation of nitrite, a stable metabolite of NO, in the media based on Griess reaction. […] However, compound 2a was also highly cytotoxic, in which the survival rate of RAW 264.7 cells was only 9% at a drug concentration of 10 μM. […] The position of substitution play an important role in which substitution at para-position is usually more favorable than its ortho- or meta- counterpart in the inhibitory activity on the LPS-induced NO production. […] Various substituted groups have been introduced on the para-position of the phenyl ring.
Raw 264.7 cells, purchased from Bioresource Collection and Research Center, Taiwan, were cultured in DMEM, supplemented with 5% fetal bovine serum, 100 units/mL of penicillin, 100 μg/mL of streptomycin, 2 mM L-glutamine, and 1 mM non-essential amino acids in a 10-cm plate at a density of 1 × 10^6 cells/mL, at 37 °C in a humidified atmosphere containing 5% CO2.
Nitrite was measured by adding 100 μL of the Griess reagent (1% sulfanilamide and 0.1% N-(1-naphthyl)ethylenediamine dihydrochloride in 5% phosphoric acid) to 100 μL of medium for 5 min. The optical density at 550 nm (OD550) was measured with a microplate reader. Concentrations were calculated by comparison with the OD550 of a standard solution of sodium nitrite prepared in culture medium.

RAW 264.7 cells = assay: Cell viability (XTT method) of RAW 264.7 cells; type: cell-based; details: compound 10 μM, 24 h, means ± S.D.
Experimental: To evaluate whether the suppressive effect of compounds on NO production is related to cell viability, Raw 264.7 cells were treated with LPS for 24 h, and washed with 500 μL of phosphate buffer solution (PBS) before resuspended in 1 mL of culture medium. Cell viability tests were run in parallel with NO production assays with an initial cell density of 5 × 10^3 cells/well in the presence or absence of test compounds at 10 μM or 0.1% DMSO as control.

[2] = NO-scavenging activity (sodium nitroprusside, nitrite by Griess reaction); details: SNP 2.5 mM, compound 10 μM, light, room temperature, 60 min
Experimental: NO-scavenging effects of pyrazolo[4,3-c]quinolines 2i and 2m were measured according to the reported method. Sodium nitroprusside (SNP) (2.5 mM) was incubated alone or in combination with tested compound (10 μM) or 1400W(10 μM) in light at room temperature for 60 min.
To understand the inhibitory effects of compounds 2i and 2m on NO production, sodium nitroprusside (SNP) was freshly prepared at […] in PBS was incubated alone or in combination with 10 µM of the different compounds. SNP is an inorganic complex where NO is found as NO^+ and light irradiation is necessary for the release of NO. Therefore, incubation mixtures were incubated in light at room temperature, and nitrite levels were determined after 60 min by Griess reaction.
Figure 1 NO-scavenging effects of 1400W, compounds 2i and 2m. SNP solution (2.5 mM) in PBS was incubated alone or with tested compound (10 μM) or 1400W (10 μM) in the presence of light at room temperature for 60 min.

iNOS mRNA expression = assay: LPS-induced iNOS mRNA expression in RAW 264.7 cells (RT-PCR); type: cell-based; details: pretreated 2 h, LPS 0.1 μg/mL
Description: Total RNA was extracted by Trizol-Reagent (Invirogen, Carlsbad, CA, USA) according to the manufacturer’s manual. One microgram of RNA was used for the reverse transcription of first strand cDNA using the oligo dT primers. Five microliters of cDNA were used for the amplification of iNOS and GAPDH (glyceraldehyde 3-phosphate dehydrogenase) mRNA expression. The primers for rat iNOS are as follows, forward: 5′-ACTGCGTCGCTTCATTAGGT-3′ and reverse: 5′-TAGGCAAGCGCTTTACCACT-3′. The primers for rat glyceraldehydes 3-phosphate dehydrogenase are as follows, forward: 5′-ATGGCACAGTCAAGGCTGAGA-3′ reverse: 5′-AGACGCCAGTAGACTCCACGAC-3′. The amplicons were electrophoresed on a 3% agarose gel and band intensities were measured using a spectrophotometer (Thermo Fisher Scientific, Waltham, MA, USA) and normalized against GAPDH.
Figure 3 Inhibitory effects of compound 2i and 2m on LPS-induced iNOS mRNA expression. Cells (5 × 10^5 cells/well) were pretreated with the indicated concentrations of tested compounds for 2 h before incubation with 0.1 μg/mL LPS for 9 h. Total RNA was prepared for RT-PCR analysis of iNOS mRNA expression in LPS-stimulated RAW 264.7 cells. GAPDH were used as internal controls for the RT-PCR assays3.4. Inhibition of LPS-inducible COX-2 expression.

COX-2 protein expression = assay: LPS-inducible COX-2 protein expression in RAW 264.7 cells (western blot); type: cell-based, murine; details: pretreated 2 h, LPS 0.1 μg/mL 24 h
Experimental: The effects of compounds 2i and 2m on iNOS and COX-2 protein expression in LPS stimulated Raw 264.7 cell were assessed by western blot. Briefly, Raw 264.7 cells were pretreated with tested compound for 2 h before stimulation in the presence or absence of LPS (0.1 μg/mL). Cells were harvested and lysed with RIPA lysis buffer (50 mM Tris–Cl, pH 8.0, 150 mM NaCl, 0.1% SDS, 0.5% NP-40, 1% sodiumdeoxycholate, 1 mM phenylmethyl-sulfonylfluoride, 1 mM EDTA, no added proteinase) at 24 h after treatment. The total protein concentration in the cell lysates was measured according to the method described by Bradford. Equal amounts (15 μg) of protein were loaded and separated by using 8% SDS–PAGE and analyzed by western blot (ECL Amersham, Bensheim, Germany). The relative expression of proteins was quantified densitometrically using the software LabWorks 4.5 and was normalized againstβ-actin.
Figure 4 Inhibition of COX-2 expression by compound 2i and 2m in LPS-stimulated RAW 264.7 cells. Cells (5 × 10^5 cells/well) were pretreated with the indicated concentrations of tested compounds for 2 h before incubation with 0.1 μg/mL LPS for 24 h. Cell lysates were then prepared and western blots were performed using an antibody specific for murine COX-2.

[3] = Mus musculus, RAW264.7, 24 h, RAW 264.7 cells, LPS 0.1 μg/mL 24 h, means ± S.D., read-out: IC50 (inhibition of LPS-induced NO production)
[4] = Mus musculus, RAW264.7, training dataset, negative logarithm of IC50 values, read-out: Observed pIC50 (converted)
[5] = Mus musculus, RAW264.7, RAW 264.7 cells, LPS 0.1 μg/mL 24 h, means ± S.D.
[6] = Mus musculus, RAW264.7, test dataset, negative logarithm of IC50 values, read-out: Observed pIC50 (converted)
[7] = Mus musculus, RAW264.7, RAW 264.7 cells, LPS 0.1 μg/mL 24 h, means ± S.D., read-out: IC50 (inhibition of LPS-induced NO production)

| SMILES | IC50 [1, 3] [nM] | IC50 [1, 4] [nM] | IC50 [1, 6] [nM] | melting point [°C] | IC50 ([1]; RAW 264.7 cells, LPS 0.1 μg/mL 24 h, means ± S.D., read-out: IC50 (inhibition of LPS-induced NO production)) [nM] | inhibition at 10 µM [1, 5] [%] | Cell Survival Rate at 10 μM (RAW 264.7 cells) | IC50 [1, 7] [nM] | NO-scavenging effect (levels of nitrite from SNP) [2] | Inhibition of LPS-stimulated iNOS mRNA expression (iNOS mRNA expression) | Inhibition of LPS-induced COX-2 protein expression (COX-2 protein expression) |
| --- | --- | --- | --- | --- | --- | --- | --- | --- | --- | --- | --- |
| Nc1n[nH]c2c1c(Nc1ccccc1O)nc1ccccc12 [Compound 2b] | 420 ± 110 | 420 | – | – | – | 103 ± 6.55 | 53.48 ± 1.53% | – | – | – | – |
| COc1ccccc1Nc1nc2ccccc2c2[nH]nc(N)c12 [Compound 2c, 3-Amino-4-(2-methoxyphenylamino)-1H-pyrazolo[4,3-c]quinoline] | – | – | 490 | 210 to 211 | – | 82.2 ± 6.49 | 47.31 ± 1.67% | 490 ± 140 | – | – | – |
| Nc1n[nH]c2c1c(Nc1cccc(O)c1)nc1ccccc12 [Compound 2d] | 770 ± 230 | – | 770 | – | – | 93.5 ± 7.57 | 81.70 ± 0.09% | – | – | – | – |
| COc1cccc(Nc2nc3ccccc3c3[nH]nc(N)c23)c1 [Compound 2e, 3-Amino-4-(3-methoxyphenylamino)-1H-pyrazolo[4,3-c]quinoline] | 770 | – | 720 | 184 to 186 | 720 ± 180 | 101 ± 1.31 | 94.32 ± 0.49% | – | – | – | – |
| Nc1ccc(Nc2nc3ccccc3c3[nH]nc(N)c23)cc1 [Compound 2j] | 920 ± 50 | 920 | – | – | – | 95.1 ± 3.75 | 90.26 ± 0.05% | – | – | – | – |
| COc1ccc(Nc2nc3ccccc3c3[nH]nc(N)c23)cc1 [Compound 2k] | 480 ± 140 | – | 480 | – | – | 90.8 ± 11.9 | 90.57 ± 0.03% | – | – | – | – |
| Cc1ccc(Nc2nc3ccccc3c3[nH]nc(N)c23)cc1 [Compound 2o] | 470 ± 70 | 470 | – | – | – | 100 ± 3.02 | 84.53 ± 0.04% | – | – | – | – |
| CC(=N)NCc1cccc(CN)c1.Cl.Cl [Compound 1400w, N-[[3-(Aminomethyl)-phenyl]methyl]-ethanimidamide dihydrochloride, reference compound] | – | – | – | – | – | 102 ± 2.16 | 99.54 ± 2.51% | 200 ± 20 | did not affect the levels of nitrite | – | – |

Now from value to compound, other results behind:

| IC50 [1, 3] [nM] | IC50 [1, 4] [nM] | IC50 [1, 6] [nM] | melting point [°C] | IC50 ([1]; RAW 264.7 cells, LPS 0.1 μg/mL 24 h, means ± S.D., read-out: IC50 (inhibition of LPS-induced NO production)) [nM] | SMILES | inhibition at 10 µM [1, 5] [%] | Cell Survival Rate at 10 μM (RAW 264.7 cells) | IC50 [1, 7] [nM] | NO-scavenging effect (levels of nitrite from SNP) [2] | Inhibition of LPS-stimulated iNOS mRNA expression (iNOS mRNA expression) | Inhibition of LPS-induced COX-2 protein expression (COX-2 protein expression) |
| --- | --- | --- | --- | --- | --- | --- | --- | --- | --- | --- | --- |
| 390 ± 80 | 390 | – | – | – | Nc1n[nH]c2c1c(Nc1ccccc1)nc1ccccc12 [Compound 2a, 3-Amino-4-phenylamino-1H-pyrazolo[4,3-c]quinoline] | 81.7 ± 0.99 | 9% and 9.09 ± 0.24% | – | – | – | – |
| 290 ± 60 | – | 290 | > 380 | – | CC(=O)c1cccc(Nc2nc3ccccc3c3[nH]nc(N)c23)c1 [Compound 2f, 3-Amino-4-(3-acetylphenylamino)-1H-pyrazolo[4,3-c]quinoline] | 99.1 ± 2.16 | 94.37 ± 0.36% | – | – | – | – |
| 320 ± 50 | 320 | – | – | – | Nc1n[nH]c2c1c(Nc1ccc(Cl)cc1)nc1ccccc12 [Compound 2g] | 104 ± 6.71 | 81.61 ± 0.14% | – | – | – | – |
| 410 ± 70 | – | 410 | – | – | Nc1n[nH]c2c1c(Nc1ccc(F)cc1)nc1ccccc12 [Compound 2h] | 94.8 ± 9.47 | 89.99 ± 0.02% | – | – | – | – |
| 290 ± 80 | 290 | – | – | – | CC(=O)c1ccc(Nc2nc3ccccc3c3[nH]nc(N)c23)cc1 [Compound 2l] | 102 ± 6.49 | 87.80 ± 0.11% | – | – | – | – |
| 220 ± 70 | 250 | – | – | – | Nc1n[nH]c2c1c(Nc1ccc(C(=O)O)cc1)nc1ccccc12 [Compound 2m, 4-(3-amino-1H-pyrazolo[4,3-c]quinolin-4-ylamino)benzoic acid] | 87.7 ± 9.93 | 85.42 ± 0.77% | – | did not affect the levels of nitrite | inhibited the LPS-stimulated iNOS mRNA production in a dose-dependent manner | effectively suppressed the induction of COX-2 protein expression by LPS |
| 360 ± 90 | 360 | – | – | – | Nc1n[nH]c2c1c(Nc1ccc(C(F)(F)F)cc1)nc1ccccc12 [Compound 2n] | 107 ± 2.48 | 69.14 ± 0.62% | – | – | – | – |
| 400 ± 90 | 400 | – | – | – | Nc1n[nH]c2c1c(Nc1ccc([N+](=O)[O-])cc1)nc1ccccc12 [Compound 2p] | 89.11 ± 0.86 | 90.86 ± 0.32% | – | – | – | – |
| 360 ± 80 | 360 | – | 269 to 271 | – | CSc1ccc(Nc2nc3ccccc3c3[nH]nc(N)c23)cc1 [Compound 2q, 3-Amino-4-(4-methylthiophenylamino)-1H-pyrazolo[4,3-c]quinoline] | 102 ± 7.01 | 89.62 ± 0.05% | – | – | – | – |
| 350 ± 60 | 350 | – | 161 to 162 | – | COc1cc(Nc2nc3ccccc3c3[nH]nc(N)c23)cc(OC)c1OC [Compound 2r, 3-Amino-4-(3,4,5-trimethoxyphenylamino)-1H-pyrazolo[4,3-c]quinoline] | 107 ± 2.58 | 85.24 ± 0.04% | – | – | – | – |

From publication PMC6102577, “Discovery of Pyrazolo[4,3-c]quinolines Derivatives as Potential Anti-Inflammatory Agents through Inhibiting of NO Production” (Molecules : A Journal of Synthetic Chemistry and Natural …, 2018)
